This note sets out measurements from PubChem BioAssay AID248 (DTP/NCI, 2004).

The test system of the assay is L1210 leukemia ip in BDF1 mice, survival T/C. The assay is described as follows: NCI In Vivo Anticancer Drug Screen. Data for tumor model L1210 Leukemia (intraperitoneal) in B6D2F1 (BDF1) mice. As to conditions: endpoint: mean survival time, higher = longer survival. The method in brief:
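Mice bearing the transplanted tumor received compound or vehicle. Survival of the treated group was divided by that of the vehicle-treated control group to give the ratio.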

Setting [1] is: dose: 100.0 mg/kg/injection, schedule: Q01DX001 (ip), vehicle: saline with Tween-80.
[2] abbreviates: dose: 100.0 mg/kg/injection, schedule: Q04DX003 (ip), vehicle: saline with Tween-80.
Setting [3] is: dose: 200.0 mg/kg/injection, schedule: Q01DX001 (ip), vehicle: saline with Tween-80.
[4] abbreviates: dose: 200.0 mg/kg/injection, schedule: Q01DX009 (ip), vehicle: saline with Tween-80.
The mark [5] stands for this setting: dose: 200.0 mg/kg/injection, schedule: Q04DX002 (ip), vehicle: saline with Tween-80.
Where [6] appears, read: dose: 200.0 mg/kg/injection, schedule: Q04DX003 (ip), vehicle: saline with Tween-80.
Setting [7] is: dose: 400.0 mg/kg/injection, schedule: Q01DX001 (ip), vehicle: saline with Tween-80.
[8] abbreviates: dose: 400.0 mg/kg/injection, schedule: Q04DX002 (ip), vehicle: saline with Tween-80.
The mark [9] stands for this setting: dose: 400.0 mg/kg/injection, schedule: Q04DX003 (ip), vehicle: saline with Tween-80.
[10] abbreviates: dose: 100.0 mg/kg/injection, schedule: Q04DX003 (ip), vehicle: Klucel (hydroxypropylcellulose) (HPC).
Setting [11] is: dose: 200.0 mg/kg/injection, schedule: Q04DX003 (ip), vehicle: Klucel (hydroxypropylcellulose) (HPC).
[12] abbreviates: dose: 100.0 mg/kg/injection, schedule: Q01DX001 (ip), vehicle: saline.
Setting [13] is: dose: 200.0 mg/kg/injection, schedule: Q01DX001 (ip), vehicle: saline.
[14] abbreviates: dose: 400.0 mg/kg/injection, schedule: Q01DX001 (ip), vehicle: saline.
[15] abbreviates: dose: 400.0 mg/kg/injection, schedule: Q04DX003 (ip), vehicle: Klucel (hydroxypropylcellulose) (HPC).

“And” between values parts separate entries of the source, which are not always exact repeats. Identical values can stand only once. Inconclusive results and toxic doses are left out.

With `CCOC(=O)NC(NC(=O)OCC)C(Br)(Br)Br`, the T/C runs as follows: (dose: 25.0 mg/kg/injection, schedule: Q01DX001 (ip), vehicle: Klucel (hydroxypropylcellulose) (HPC)) 112 % of control; (dose: 25.0 mg/kg/injection, schedule: Q04DX002 (ip), vehicle: Klucel (hydroxypropylcellulose) (HPC)) 104 % of control; (dose: 50.0 mg/kg/injection, schedule: Q01DX001 (ip), vehicle: Klucel (hydroxypropylcellulose) (HPC)) 112 % of control; (dose: 50.0 mg/kg/injection, schedule: Q04DX002 (ip), vehicle: Klucel (hydroxypropylcellulose) (HPC)) 106 % of control; (dose: 100.0 mg/kg/injection, schedule: Q01DX001 (ip), vehicle: Klucel (hydroxypropylcellulose) (HPC)) 108 % of control; (dose: 100.0 mg/kg/injection, schedule: Q04DX002 (ip), vehicle: Klucel (hydroxypropylcellulose) (HPC)) 104 % of control. The T/C by setting is: (dose: 200.0 mg/kg/injection, schedule: Q01DX001 (ip), vehicle: Klucel (hydroxypropylcellulose) (HPC)) 116 % of control; (dose: 200.0 mg/kg/injection, schedule: Q04DX002 (ip), vehicle: Klucel (hydroxypropylcellulose) (HPC)) 102 % of control.
Regarding `CCOc1ccc(NC(=O)Oc2ccc(C(=O)OC)cc2)cc1`, the T/C runs as follows: under setting [1], 93 % of control; (dose: 100.0 mg/kg/injection, schedule: Q01DX009 (ip), vehicle: saline with Tween-80) 101 % of control and 103 % of control; (dose: 100.0 mg/kg/injection, schedule: Q04DX002 (ip), vehicle: saline with Tween-80) 103 % of control and 92 % of control; under setting [2], 105 % of control; under setting [3], 91 % of control; under setting [4], 100 % of control and 103 % of control. Besides, the T/C was 95 % of control and 92 % of control under setting [5]; 103 % of control under setting [6]; 91 % of control under setting [7]; 93 % of control and 94 % of control (dose: 400.0 mg/kg/injection, schedule: Q01DX009 (ip), vehicle: saline with Tween-80); 103 % of control under setting [8]; 105 % of control under setting [9].
For `COc1ccc(Cl)cc1N1C(=O)C2C(C1=O)C1(Cl)C(Cl)=C(Cl)C2(Cl)C1(Cl)Cl` (centres undefined), the T/C was 91 % of control (dose: 50.0 mg/kg/injection, schedule: Q01DX009 (ip), vehicle: Klucel (hydroxypropylcellulose) (HPC)); 101 % of control (dose: 100.0 mg/kg/injection, schedule: Q01DX009 (ip), vehicle: Klucel (hydroxypropylcellulose) (HPC)); 98 % of control under setting [10]; 98 % of control under setting [11].
`CCOc1ccc(C=C(C#N)C#N)cc1OCC`: the T/C was 105 % of control under setting [12], 102 % of control under setting [13] and 90 % of control under setting [14].
Turning to `Cc1cc(=O)n(/C=C/C(=O)O)c2ccccc12`, the T/C is 97 % of control under setting [10], 112 % of control under setting [11] and 94 % of control under setting [15].
As for `COC(=O)N1C(N2CCCC2=O)C(C)(C)S1(=O)=O` (centres undefined), the T/C (dose: 75.0 mg/kg/injection, schedule: Q04DX003 (ip), vehicle: Klucel (hydroxypropylcellulose) (HPC)) was 102 % of control; the T/C (dose: 150.0 mg/kg/injection, schedule: Q04DX003 (ip), vehicle: Klucel (hydroxypropylcellulose) (HPC)) was 94 % of control; the T/C (dose: 300.0 mg/kg/injection, schedule: Q04DX003 (ip), vehicle: Klucel (hydroxypropylcellulose) (HPC)) is 89 % of control.
Turning to `Clc1ccccc1OB(Oc1ccccc1Cl)Oc1ccccc1Cl`, the T/C is, setting by setting: under setting [12], 101 % of control; under setting [13], 95 % of control.
Turning to `CCC[N+]12CC=C3COC(=O)C(C)(O)C(C)(O)C(C)C(=O)OC(CC1)C32` (centres undefined), the T/C runs as follows: (dose: 50.0 mg/kg/injection, schedule: Q01DX009 (ip), vehicle: saline) 92 % of control; (dose: 100.0 mg/kg/injection, schedule: Q01DX009 (ip), vehicle: saline) 95 % of control; (dose: 200.0 mg/kg/injection, schedule: Q01DX009 (ip), vehicle: saline) 95 % of control.
As for `Cc1ncc(C(=O)O)[nH]1`, the T/C is 91 % of control under setting [12], 89 % of control under setting [13] and 91 % of control under setting [14].
Turning to `COc1cccc(CO)c1-c1c(CO)cccc1OC`, the T/C by setting is: (dose: 100.0 mg/kg/injection, schedule: Q04DX003 (ip), vehicle: saline) 95 % of control; (dose: 200.0 mg/kg/injection, schedule: Q04DX003 (ip), vehicle: saline) 97 % of control; (dose: 400.0 mg/kg/injection, schedule: Q04DX003 (ip), vehicle: saline) 97 % of control.
With `OCC1=CCc2ccccc21`, the T/C was 93 % of control (dose: 100.0 mg/kg/injection, schedule: Q04DX002 (ip), vehicle: other); 93 % of control (dose: 200.0 mg/kg/injection, schedule: Q04DX002 (ip), vehicle: other); 93 % of control (dose: 400.0 mg/kg/injection, schedule: Q04DX002 (ip), vehicle: other).
As to `CN(C)/N=N\c1nc[nH]c1C(=O)N1CCCC1`, the T/C reads like this: under setting [1], 100 % of control; under setting [3], 105 % of control; under setting [4], 150 % of control and 206 % of control; under setting [7], 111 % of control.
Turning to `CC(c1ccc2ccccc2c1)C1CCCCC1C(=O)O` (centres undefined), the T/C under setting [2] is 96 % of control, the T/C under setting [6] was 97 % of control and the T/C under setting [9] is 94 % of control.
On to `CC(=O)C(CCC(=O)O)(CCC(=O)O)c1ccccc1`, for which the T/C was 100 % of control (dose: 30.0 mg/kg/injection, schedule: Q01DX Z (ip), vehicle: other); 101 % of control (dose: 60.0 mg/kg/injection, schedule: Q01DX Z (ip), vehicle: other); 92 % of control under setting [10]; 95 % of control (dose: 120.0 mg/kg/injection, schedule: Q01DX Z (ip), vehicle: other); 97 % of control under setting [11]; 95 % of control (dose: 240.0 mg/kg/injection, schedule: Q01DX Z (ip), vehicle: other). Besides, the T/C under setting [15] is 102 % of control.
For the molecule `CCCCCCCCCCCCC/C=C/CC(CC(=O)O)C(=O)Nc1cccc2c[n+](CC(=O)c3ccc(NC(C)=O)cc3)ccc12` (centres undefined), the T/C runs as follows: under setting [10], 111 % of control; under setting [11], 101 % of control; under setting [15], 105 % of control.
Regarding `CCOc1ccc(OCC)c(NC(=O)Nc2ccccc2Cl)c1`, the T/C reads like this: under setting [5], 90 % of control; under setting [8], 87 % of control.
In the case of `C=CCC1(/C(C)=C/C)C(=O)NC(=O)NC1=O`, the T/C reads like this: (dose: 75.0 mg/kg/injection, schedule: Q01DX001 (ip), vehicle: saline) 100 % of control; (dose: 150.0 mg/kg/injection, schedule: Q01DX001 (ip), vehicle: saline) 94 % of control.
As to `CCN1CCC(CNc2cc(C)nc(/N=C(\N)Nc3cc(Cl)cc(Cl)c3)n2)C1` (centres undefined), the T/C was 102 % of control (dose: 12.5 mg/kg/injection, schedule: Q04DX003 (ip), vehicle: Klucel (hydroxypropylcellulose) (HPC)); 105 % of control (dose: 25.0 mg/kg/injection, schedule: Q04DX003 (ip), vehicle: Klucel (hydroxypropylcellulose) (HPC)); 105 % of control (dose: 50.0 mg/kg/injection, schedule: Q04DX003 (ip), vehicle: Klucel (hydroxypropylcellulose) (HPC)).
Take `COc1ccc(N)cc1`: the T/C reads like this: (dose: 100.0 mg/kg/injection, schedule: Q01DX009 (ip), vehicle: alcohol) 121 % of control; (dose: 200.0 mg/kg/injection, schedule: Q01DX009 (ip), vehicle: alcohol) 88 % of control.
For the molecule `CCOC(=O)C(O)C(Cl)(c1ccccc1)C(C)C` (centres undefined), the T/C (dose: 100.0 mg/kg/injection, schedule: Q04DX002 (ip), vehicle: saline) was 100 % of control; the T/C (dose: 200.0 mg/kg/injection, schedule: Q04DX002 (ip), vehicle: saline) is 114 % of control; the T/C (dose: 400.0 mg/kg/injection, schedule: Q04DX002 (ip), vehicle: saline) was 111 % of control.
Turning to `Cc1ccc(O)c(CCCO)c1`, the T/C reads like this: (dose: 50.0 mg/kg/injection, schedule: Q01DX001 (ip), vehicle: saline) 97 % of control; under setting [12], 105 % of control; under setting [13], 94 % of control.
For `NS(=O)(=O)c1ccc(Cl)c(Cl)c1`, the T/C is, setting by setting: under setting [2], 97 % of control; under setting [6], 103 % of control; under setting [9], 93 % of control.
Turning to `CCCCCCOP1(=O)C=C(C)CC1` (centres undefined), the T/C is 93 % of control under setting [2] and 90 % of control under setting [6].
